Assay results from ChEMBL document CHEMBL1166001, “Manadoperoxides A-D from the Indonesian sponge Plakortis cfr. simplex. Further insights on the structure-activity relationships of simple 1,2-dioxane antimalarials” (J Nat Prod, 2010).

Legend:
Plasmodium falciparum [1] = experiment: Antimalarial activity against chloroquine-resistant Plasmodium falciparum W2 after 72 hrs by parasite LDH assay; assay type: functional, organism-based; conditions: W2, 72 h
Plasmodium falciparum [2] = experiment: Antimalarial activity against chloroquine-sensitive Plasmodium falciparum D10 after 72 hrs by parasite LDH assay; assay type: functional, organism-based; conditions: D10, 72 h

SMILES	IC50 (Plasmodium falciparum [1]) [µM]	IC50 (Plasmodium falciparum [2]) [µM]
C/C=C(C)/C=C/CCC[C@]1(OC)C[C@H](C)[C@H](CC(=O)OC)OO1 [MANADOPEROXIDE A]	3.74	6.88
CC/C=C/[C@H](CC)C[C@@]1(C)C[C@@H](CC)[C@@H](CC(=O)OC)OO1 [PLAKORTIN]	0.39	
CC/C=C(C)/C=C/CCC[C@]1(OC)C[C@H](C)[C@H](CC(=O)OC)OO1 [MANADOPEROXIDE B]	3.69	6.76
COC(=O)C[C@@H]1OO[C@@](CCC/C=C/C(C)=O)(OC)C[C@@H]1C [MANADOPEROXIDE C]	2.33	4.54
COC(=O)C[C@@H]1OO[C@@](CCC[C@H](O)/C=C(\C)[C@H](C)O)(OC)C[C@@H]1C [MANADOPEROXIDE D]	7.93	10.4
